Test results published in patent publication US20230233569A1 (Revolution Medicines, Inc., priority 2020, published 2023).
Where two headings read alike, the source gives them in different places.

Key:
Capan-1 (K-Ras G12V) = assay: CellTiter-Glo cell viability assay, 5-day treatment; type: cell-based; settings: Homo sapiens, CAPAN-1, 120 h, 5-day treatment; read-out: Capan-1 Cell Viability assay data (K-Ras G12V, IC50)
Outline: (§1)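 Seeded cells received test compound by direct dispensing. On day 5 the plates sat at room temperature approximately 30 minutes, then luminescence was measured. Data were normalized to DMSO and curve-fitted with four parameters.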

NRAS Q61K = NRAS Q61K (Homo sapiens, UniProt P01111+P62937, Q61K); assay: Disruption of BRAF RBD interaction with Ras (FRET / MOA assay, with Cyclophilin A); type: biochemical; settings: NRAS Q61K; read-out: NRAS Q61K FRET data IC50
Outline: (§2)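 TR-FRET in 25 mM HEPES pH 7.3, 100 mM NaCl, 5 mM MgCl2, 0.1% BSA: 25 μM Cyclophilin A, 12.5 nM His6-Ras-GMPPNP, 50 nM GST-BRAF RBD with compound (10-point 3-fold series from 30 μM), 3 h at 25° C. Anti-His Eu/anti-GST APC added, 1.5 h more; IC50 from decreased FRET ratio versus DMSO.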

NRAS Q61R = NRAS Q61R (Homo sapiens, UniProt P01111+P62937, Q61R); assay: as above; type: biochemical; settings: NRAS Q61R; read-out: NRAS Q61R FRET data IC50
Outline: as §2

KRAS Q61H = KRAS Q61H (Homo sapiens, UniProt P01116+P62937, Q61H); assay: as above; type: biochemical; settings: KRAS Q61H; read-out: KRAS Q61H FRET data IC50
Outline: as §2

NRAS WT = NRAS WT (Homo sapiens, UniProt P01111+P62937); assay: as above; type: biochemical; settings: NRAS WT; read-out: NRAS WT FRET data IC50
Outline: as §2

KRAS G12S = KRAS G12S (Homo sapiens, UniProt P01116+P62937, G12S); assay: as above; type: biochemical
Outline: (§3)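 IC50 values reflect loss of K-Ras binding to BRAF RBD, read as a lowered TR-FRET ratio compared with DMSO, driven by compound-mediated K-Ras:Cyclophilin A complex formation. Compound top dose 30 μM final, 3-fold steps, 3 h incubation at 25 °C before a 1.5 h antibody step.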

KRAS G12C = KRAS G12C (Homo sapiens, UniProt P01116+P62937, G12C); assay: as above; type: biochemical
Outline: as §3

NRAS G12C = NRAS G12C (Homo sapiens, UniProt P01111+P62937, G12C); assay: as above; type: biochemical
KRAS G13D = KRAS G13D (Homo sapiens, UniProt P01116+P62937, G13D); assay: as above; type: biochemical
Outline: as §3

KRAS G12D = KRAS G12D (Homo sapiens, UniProt P01116+P62937, G12D); assay: as above; type: biochemical
Outline: as §3

KRAS WT = KRAS WT (Homo sapiens, UniProt P01116+P62937); assay: as above; type: biochemical
Outline: as §3

KRAS G13C = KRAS G13C (Homo sapiens, UniProt P01116+P62937, G13C); assay: as above; type: biochemical
Outline: as §3

KRAS G12V = KRAS G12V (Homo sapiens, UniProt P01116+P62937, G12V); assay: as above; type: biochemical
Outline: as §3

NCI-H358 (K-Ras G12C) = assay: CellTiter-Glo cell viability assay, 5-day treatment; type: cell-based; settings: Homo sapiens, NCI-H358, 120 h, 5-day treatment; read-out: H358 Cell Viability assay data (K-Ras G12C, IC50)
Outline: as §1

[1] = read-out: KRAS G12S FRET data, IC50
[2] = read-out: KRAS G12C FRET data, IC50
[3] = NRAS G12C, read-out: NRAS G12C FRET data IC50
[4] = KRAS G13D, read-out: KRAS G13D FRET data IC50
[5] = read-out: KRAS G12D FRET data, IC50
[6] = KRAS WT, read-out: KRAS WT FRET data IC50
[7] = read-out: KRAS G13C FRET data, IC50
[8] = KRAS G12V, read-out: KRAS G12V FRET data IC50
[9] = NRAS G12C FRET data IC50, NRAS G12C
[10] = KRAS G13D FRET data IC50, KRAS G13D
[11] = KRAS WT FRET data IC50, KRAS WT
[12] = KRAS G12V FRET data IC50, KRAS G12V

Chain of KRAS G13C (P01116 1-169 isoform P01116-2 G13C): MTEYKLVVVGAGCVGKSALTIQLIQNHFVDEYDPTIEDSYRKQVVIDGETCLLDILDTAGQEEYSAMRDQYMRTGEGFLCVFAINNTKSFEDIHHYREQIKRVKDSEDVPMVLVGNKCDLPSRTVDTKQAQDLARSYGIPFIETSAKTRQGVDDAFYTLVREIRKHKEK
Chain of KRAS G13C (P62937 whole entry): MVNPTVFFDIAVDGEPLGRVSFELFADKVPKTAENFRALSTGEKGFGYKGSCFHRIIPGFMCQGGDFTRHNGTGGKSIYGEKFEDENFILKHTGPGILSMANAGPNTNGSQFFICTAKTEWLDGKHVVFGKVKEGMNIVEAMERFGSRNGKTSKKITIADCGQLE
Chain of NRAS Q61K (P01111 whole entry Q61K): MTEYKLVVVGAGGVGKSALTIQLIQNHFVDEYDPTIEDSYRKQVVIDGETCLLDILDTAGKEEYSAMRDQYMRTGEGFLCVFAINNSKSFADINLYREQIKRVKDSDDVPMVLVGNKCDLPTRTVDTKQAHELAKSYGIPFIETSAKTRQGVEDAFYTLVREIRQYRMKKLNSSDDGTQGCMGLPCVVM
Chain of NRAS Q61K (P62937 whole entry): as the sequence (P62937 whole entry) above
Chain of KRAS G12C (P01116 1-169 isoform P01116-2 G12C): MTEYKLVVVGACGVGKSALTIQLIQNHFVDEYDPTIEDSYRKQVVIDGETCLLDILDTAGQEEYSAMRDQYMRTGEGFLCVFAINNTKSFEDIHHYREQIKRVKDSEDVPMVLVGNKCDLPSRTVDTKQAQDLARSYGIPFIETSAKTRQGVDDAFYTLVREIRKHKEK
Chain of KRAS G12C (P62937 whole entry): as the sequence (P62937 whole entry) above
Chain of NRAS Q61R (P01111 whole entry Q61R): as the sequence (P01111 whole entry Q61K) above, with K61R counted along it
Chain of NRAS Q61R (P62937 whole entry): as the sequence (P62937 whole entry) above
Chain of KRAS G13D (P01116 1-169 isoform P01116-2 G13D limits assumed): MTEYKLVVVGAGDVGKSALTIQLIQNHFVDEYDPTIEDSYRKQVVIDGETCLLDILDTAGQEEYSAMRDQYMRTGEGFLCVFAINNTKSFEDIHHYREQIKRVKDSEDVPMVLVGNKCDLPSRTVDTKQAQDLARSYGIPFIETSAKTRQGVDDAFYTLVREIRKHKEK
Chain of KRAS G13D (P62937 whole entry): as the sequence (P62937 whole entry) above
Chain of KRAS WT (P01116 1-169 isoform P01116-2 limits assumed): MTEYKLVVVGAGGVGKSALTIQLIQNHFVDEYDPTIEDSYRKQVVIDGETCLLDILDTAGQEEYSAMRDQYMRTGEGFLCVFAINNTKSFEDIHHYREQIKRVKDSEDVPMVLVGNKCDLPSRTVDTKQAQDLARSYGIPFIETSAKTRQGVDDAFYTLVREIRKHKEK
Chain of KRAS WT (P62937 whole entry): as the sequence (P62937 whole entry) above
Chain of KRAS Q61H (P01116 1-169 isoform P01116-2 Q61H limits assumed): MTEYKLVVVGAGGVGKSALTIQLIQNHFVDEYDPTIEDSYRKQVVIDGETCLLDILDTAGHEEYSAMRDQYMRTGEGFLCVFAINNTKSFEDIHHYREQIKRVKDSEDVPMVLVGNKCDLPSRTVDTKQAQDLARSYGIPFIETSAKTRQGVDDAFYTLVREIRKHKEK
Chain of KRAS Q61H (P62937 whole entry): as the sequence (P62937 whole entry) above
Chain of KRAS G12V (P01116 1-169 isoform P01116-2 G12V limits assumed): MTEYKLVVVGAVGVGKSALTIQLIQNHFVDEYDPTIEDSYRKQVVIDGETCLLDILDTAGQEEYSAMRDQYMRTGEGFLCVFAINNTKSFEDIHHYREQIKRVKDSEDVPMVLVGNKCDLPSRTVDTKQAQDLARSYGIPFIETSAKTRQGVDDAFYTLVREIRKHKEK
Chain of KRAS G12V (P62937 whole entry): as the sequence (P62937 whole entry) above
Chain of NRAS WT (P01111 whole entry): as the sequence (P01111 whole entry Q61K) above, with K61Q counted along it
Chain of NRAS WT (P62937 whole entry): as the sequence (P62937 whole entry) above
Chain of NRAS G12C (P01111 whole entry G12C): as the sequence (P01111 whole entry Q61K) above, with G12C, K61Q counted along it
Chain of NRAS G12C (P62937 whole entry): as the sequence (P62937 whole entry) above
Chain of KRAS G12S (P01116 1-169 isoform P01116-2 G12S limits assumed): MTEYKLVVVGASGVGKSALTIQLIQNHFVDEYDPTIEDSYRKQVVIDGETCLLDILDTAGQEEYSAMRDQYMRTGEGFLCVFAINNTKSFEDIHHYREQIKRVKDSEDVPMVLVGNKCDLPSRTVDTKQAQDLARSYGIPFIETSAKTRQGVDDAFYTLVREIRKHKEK
Chain of KRAS G12S (P62937 whole entry): as the sequence (P62937 whole entry) above
Chain of KRAS G12D (P01116 1-169 isoform P01116-2 G12D limits assumed): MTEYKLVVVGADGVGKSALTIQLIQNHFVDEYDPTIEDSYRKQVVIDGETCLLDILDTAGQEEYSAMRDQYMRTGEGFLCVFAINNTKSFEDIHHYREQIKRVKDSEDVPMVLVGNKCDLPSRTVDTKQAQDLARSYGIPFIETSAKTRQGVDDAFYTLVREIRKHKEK
Chain of KRAS G12D (P62937 whole entry): as the sequence (P62937 whole entry) above

Row | SMILES | IC50 (NRAS Q61K) [nM] | IC50 (NRAS Q61R) [nM] | IC50 (KRAS Q61H) [nM] | IC50 (NRAS WT) [nM] | IC50 (KRAS G12S; [1]) [nM] | IC50 (KRAS G12C; [2]) [nM] | IC50 (NRAS G12C; [3]) [nM] | IC50 (KRAS G13D; [4]) [nM] | IC50 (KRAS G12D; [5]) [nM] | IC50 (KRAS WT; [6]) [nM] | IC50 (KRAS G13C; [7]) [nM] | IC50 (KRAS G12V; [8]) [nM] | IC50 (NCI-H358 (K-Ras G12C)) [nM] | IC50 (KRAS G12S; KRAS G12S FRET data, IC50) [nM] | IC50 (KRAS G12C; KRAS G12C FRET data, IC50) [nM] | IC50 (NRAS G12C; [9]) [nM] | IC50 (KRAS G13D; [10]) [nM] | IC50 (KRAS G12D; KRAS G12D FRET data, IC50) [nM] | IC50 (KRAS WT; [11]) [nM] | IC50 (Capan-1 (K-Ras G12V)) [nM] | also measured
1 | CCn1c(-c2cccnc2[C@H](C)OC)c2c3cc(ccc31)-c1csc(n1)C[C@H](NC(=O)[C@H](C(C)C)N1CCC3(CCN(S(C)(=O)=O)C3)C1=O)C(=O)N1CCC[C@H](N1)C(=O)OCC(C)(C)C2 (mixture of isomers) [Example A220] | 1000 to 10000 | 1000 to 10000 | 1000 to 10000 | 1000 to 10000 | – | – | – | – | – | – | – | – | – | – | – | – | – | – | – | 1000 to 10000 | –
2 | CCn1c(-c2cnccc2COC)c2c3cc(ccc31)-c1cc(O)cc(c1)C[C@H](NC(=O)[C@H](C(C)C)N(C)C(=O)[C@H]1CCN(S(=O)(=O)N3CC(O)C3)C1)C(=O)N1CCC[C@H](N1)C(=O)OCC(C)(C)C2 [Example A37, (2S)—N-[(8S,14S)-22-ethyl-4-hydroxy-21-[4-(methoxymethyl)pyridin-3-yl]-18,18-dimethyl-9,15-dioxo-16-oxa-10,22,28-triazapentacyclo[18.5.2.1^2,6.1^10,14.0^23,27]nonacosa-1(26),2,4,6(29),20,23(27),24-heptaen-8-yl]-2-{1-[(3S)-1-[(3-hydroxyazetidin-1-yl)sulfonyl]pyrrolidin-3-yl]-N-methylformamido}-3-methylbutanamide] | 1000 to 10000 | 1000 to 10000 | 10 to 100 | 100 to 1000 | – | – | – | – | – | – | – | – | 1000 to 10000 | 100 to 1000 | 100 to 1000 | 100 to 1000 | 1000 to 10000 | > 10000 | 100 to 1000 | – | IC50 (KRAS G13C; KRAS G13C FRET data, IC50): 100 to 1000 nM; IC50 (KRAS G12V; [12]): 100 to 1000 nM
3 | CCn1c(-c2cnccc2COC)c2c3cc(ccc31)-c1cc(O)cc(c1)C[C@H](NC(=O)[C@H](C(C)C)N(C)S(C)(=O)=O)C(=O)N1CCC[C@H](N1)C(=O)OCC(C)(C)C2 [Example A57, (2S)—N-[(8S,14S)-22-ethyl-4-hydroxy-21-[4-(methoxymethyl)pyridin-3-yl]-18,18-dimethyl-9,15-dioxo-16-oxa-10,22,28-triazapentacyclo[18.5.2.1^2,6.1^10,14.0^23,27]nonacosa-1(26),2,4,6(29),20,23(27),24-heptaen-8-yl]-3-methyl-2-(N-methylmethanesulfonamido)butanamide] | 1000 to 10000 | 1000 to 10000 | 100 to 1000 | 1000 to 10000 | – | – | – | – | – | – | – | – | 1000 to 10000 | 1000 to 10000 | 1000 to 10000 | 1000 to 10000 | 1000 to 10000 | > 10000 | 1000 to 10000 | – | IC50 (KRAS G13C; KRAS G13C FRET data, IC50): 1000 to 10000 nM; IC50 (KRAS G12V; [12]): 1000 to 10000 nM

Continued, in another order:

Row | IC50 (NRAS Q61K) [nM] | IC50 (NRAS Q61R) [nM] | IC50 (KRAS Q61H) [nM] | IC50 (NRAS WT) [nM] | IC50 (KRAS G12S; [1]) [nM] | IC50 (KRAS G12C; [2]) [nM] | IC50 (NRAS G12C; [3]) [nM] | IC50 (KRAS G13D; [4]) [nM] | IC50 (KRAS G12D; [5]) [nM] | IC50 (KRAS WT; [6]) [nM] | IC50 (KRAS G13C; [7]) [nM] | IC50 (KRAS G12V; [8]) [nM] | IC50 (NCI-H358 (K-Ras G12C)) [nM] | IC50 (KRAS G12S; KRAS G12S FRET data, IC50) [nM] | IC50 (KRAS G12C; KRAS G12C FRET data, IC50) [nM] | IC50 (NRAS G12C; [9]) [nM] | IC50 (KRAS G13D; [10]) [nM] | IC50 (KRAS G12D; KRAS G12D FRET data, IC50) [nM] | IC50 (KRAS WT; [11]) [nM] | SMILES | IC50 (Capan-1 (K-Ras G12V)) [nM] | also measured
4 | 100 to 1000 | 1000 to 10000 | 100 to 1000 | 100 to 1000 | 1000 to 10000 | 100 to 1000 | 100 to 1000 | 1000 to 10000 | 1000 to 10000 | 1000 to 10000 | 100 to 1000 | 100 to 1000 | – | – | – | – | – | – | – | CCn1c(-c2cccnc2[C@H](C)OC)c2c3cc(ccc31)-c1csc(n1)C[C@H](NC(=O)c1ccccn1)C(=O)N1CCC[C@H](N1)C(=O)OCC(C)(C)C2 [Example A366] | 1000 to 10000 | –
5 | 100 to 1000 | 100 to 1000 | 10 to 100 | 100 to 1000 | 100 to 1000 | 100 to 1000 | 100 to 1000 | 100 to 1000 | 1000 to 10000 | 100 to 1000 | 1000 to 10000 | 100 to 1000 | 1000 to 10000 | – | – | – | – | – | – | CCn1c(-c2cnccc2COC)c2c3cc(ccc31)-c1cc(O)cc(c1)C[C@H](NC(=O)[C@H](C(C)C)N(C)C(=O)c1ncco1)C(=O)N1CCC[C@H](N1)C(=O)OCC(C)(C)C2 [Example A38] | – | –
6 | 100 to 1000 | 100 to 1000 | 10 to 100 | 10 to 100 | 100 to 1000 | 100 to 1000 | 100 to 1000 | 100 to 1000 | 100 to 1000 | 100 to 1000 | 100 to 1000 | 1000 to 10000 | – | – | – | – | – | – | – | CCn1c(-c2cccnc2[C@H](C)OC)c2c3cc(ccc31)-c1csc(n1)C[C@H](NC(=O)[C@H](C(C)C)N(C)C(=O)N1CC[C@]13CCCNC3)C(=O)N1CCC[C@H](N1)C(=O)OCC(C)(C)C2 [Example A434] | 1000 to 10000 | –
